Test results taken from paper PMC11449324, “Functional comparison of human and murine equilibrative nucleobase transporter 1” (PLOS ONE, 2024).

Molecular target: T1, endogenous ENBT1 expressed in MOLT-4 cells (Homo sapiens, UniProt Q8NBI5)
T1 construct: MOLT-4 cells express the SLC43A3 transcript and L1210 cells express the slc43a3 transcript; host or cells: MOLT-4
T1 sequence (Q8NBI5 1-491): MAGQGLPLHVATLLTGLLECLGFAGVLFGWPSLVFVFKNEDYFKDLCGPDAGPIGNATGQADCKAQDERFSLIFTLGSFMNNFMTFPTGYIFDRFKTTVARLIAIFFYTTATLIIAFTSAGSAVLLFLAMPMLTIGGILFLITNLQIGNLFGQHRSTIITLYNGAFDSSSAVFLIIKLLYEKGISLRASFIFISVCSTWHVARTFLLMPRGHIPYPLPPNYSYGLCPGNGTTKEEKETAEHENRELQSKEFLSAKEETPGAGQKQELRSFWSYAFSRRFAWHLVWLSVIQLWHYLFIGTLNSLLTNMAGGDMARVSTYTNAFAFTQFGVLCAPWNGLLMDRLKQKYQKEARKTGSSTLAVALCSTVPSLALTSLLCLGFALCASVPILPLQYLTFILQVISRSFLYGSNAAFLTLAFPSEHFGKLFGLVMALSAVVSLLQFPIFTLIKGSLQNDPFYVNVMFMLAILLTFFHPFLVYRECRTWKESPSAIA
Experiment: [3H]6-MP uptake in MOLT-4 cells
Assay type: cell-based
Conditions: 30 μM [3H]6-MP
Method: Harvested cells were suspended in nominally sodium-free N-methyl-D-glucamine (NMG) buffer (140 mM NMG, 5 mM KCl, 4.2 mM KHCO3, 0.36 mM K2HPO4, 0.44 mM KH2PO4, 0.5 mM MgCl2, 1.3 mM CaCl2, 10 mM HEPES, pH 7.4), to minimize potential contribution of sodium-dependent concentrative nucleoside transporter-mediated uptake. Additionally, cells were incubated for 15 minutes at room temperature with 10 μM dipyridamole (DY), an equilibrative nucleoside transporter (ENT) inhibitor, to block equilibrative nucleoside transporter–mediated uptake. The substrate uptake assay was initiated by adding 250 μL cell suspension to 250 μL [^3H] labeled substrate, layered over 21:4 silicone:mineral oil (200 μL) in 1.5 mL microcentrifuge tubes (conducted at room temperature). […] This is the minimum incubation time achievable with this oil-stop technique, and it was found in previous studies that these short incubation times were necessary to assess the kinetics of this transporter. […] The resulting cell pellet was digested in 250 μL 1 M NaOH overnight (~16 hours), with 220 μL aliquots of digested cells assessed for radioactive content using standard liquid scintillation counting techniques in a Beckman Coulter LS6500 scintillation system (Brea, CA).
In transfected-HEK293 cell lines, total uptake was defined as uptake of radiolabeled substrate in cells overexpressing recombinant hENBT1 or mENBT1. […] ENBT1-mediated uptake was calculated as total uptake minus the non-mediated uptake.
Cell water volume (μL) was estimated by incubating cells with ^3H2O for 3 minutes, centrifuging the cells through the oil layer at ~10,000 g, assessing 100 μL of the supernatant for radioactive content, and then processing as described above. Total cellular water volume was determined from the ratio of the decays per minute of the cell pellet, to the decays per minute of the supernatant, allowing for inter-experimental normalization via calculation of picomoles of substrate accumulated per microliter of cell-associated water.

Sc1ncnc2nc[nH]c12 [6-MP, 6-Mercaptopurine]
k value of time-dependent uptake: 0.34 ± 0.09 s⁻¹ | uptake plateau: roughly 30 pmol/μL

Nc1ncnc2[nH]cnc12 [adenine, Adenine]
effect on uptake of [3H]6-MP (5 mM adenine): significantly inhibited
